Experimental data as given in patent US20260184693A1, “INHIBITORS OF SOLUTE CARRIER FAMILY 6A MEMBER 19 (SLC6A19) AND METHODS OF USE THEREOF” (Maze Therapeutics, Inc., priority 2022, published 2026).

Target: T1, human SLC6A19 (Homo sapiens, UniProt Q695T7)
T1 construct: expressed in transfected cells
T1 sequence (Q695T7 1-634): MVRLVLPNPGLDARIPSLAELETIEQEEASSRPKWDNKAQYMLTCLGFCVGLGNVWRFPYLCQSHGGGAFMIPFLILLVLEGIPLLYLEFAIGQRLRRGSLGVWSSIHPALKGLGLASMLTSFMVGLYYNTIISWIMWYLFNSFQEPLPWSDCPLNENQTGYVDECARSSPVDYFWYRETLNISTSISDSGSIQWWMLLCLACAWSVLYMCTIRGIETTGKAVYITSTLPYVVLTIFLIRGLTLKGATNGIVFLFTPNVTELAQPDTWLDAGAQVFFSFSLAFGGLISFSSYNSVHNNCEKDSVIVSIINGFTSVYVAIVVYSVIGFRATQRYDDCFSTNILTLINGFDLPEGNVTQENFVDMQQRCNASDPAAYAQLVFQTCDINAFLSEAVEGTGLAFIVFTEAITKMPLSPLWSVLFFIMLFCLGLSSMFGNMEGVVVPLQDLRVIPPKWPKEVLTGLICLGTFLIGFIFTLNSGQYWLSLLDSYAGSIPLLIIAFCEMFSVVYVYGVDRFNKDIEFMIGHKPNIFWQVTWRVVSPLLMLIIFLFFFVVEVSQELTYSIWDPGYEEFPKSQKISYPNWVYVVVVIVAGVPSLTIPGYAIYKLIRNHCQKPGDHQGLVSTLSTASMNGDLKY
T1 sequence (Q9HBJ8 15-222 partner): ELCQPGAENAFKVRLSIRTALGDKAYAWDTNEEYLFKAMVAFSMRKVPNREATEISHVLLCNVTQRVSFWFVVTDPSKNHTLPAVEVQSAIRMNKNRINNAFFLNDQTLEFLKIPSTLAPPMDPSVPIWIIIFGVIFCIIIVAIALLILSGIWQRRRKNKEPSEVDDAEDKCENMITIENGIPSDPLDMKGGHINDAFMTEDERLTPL
Assay: Example B2: 13C6,15N-isoleucine uptake, RapidFire mass spectrometry, in CHO cells with doxycycline-inducible expression of human SLC6A19 and TMEM27
Assay type: cell-based
Conditions: read-out: SLC6A19_RapidFire Uptake Assay IC50
Method: Assay ready vials of CHO cells with doxycycline inducible expression of human SLC6A19 and TMEM27 were thawed, plated in T175 flasks containing DMEM/F12 media, 10% FBS, 100 Penicillin-Streptomycin, 1× UltraGlutamate, 1 mM Sodium Pyruvate, Sodium Bicarbonate (7.5 mL of 7.5% solution in 500 mL media final), […] Blasticidin, 150 µg/mL Hygromycin B Gold, and 500 µg/mL G418, and incubated (humidified, 37° C. with […]) for 48 hours. Media was then removed, flasks were washed with 20 mL of DPBS, and 5 mL of TryμLE™ Express was added to each flask to initiate cell dissociation. After 5 minutes, 10 mL of cell culture media was added to each flask and mixed. The cell suspension was collected and centrifuged for 5 minutes at 200×g. The supernatant was removed, and the pellet was resuspended in 10 mL of cell culture media. Resuspended cells were counted using a Vi-Cell. 30 μL/well (20,000 cells/well) of cell suspension was added to Poly-D-Lysine 384-well black/clear plates. Plates were incubated (humidified, 37° C. with 5% CO2) for 24 hours. To induce expression of human SLC6A19 and TMEM27, 10 μL of assay culture media containing 4 μg/mL doxycycline was added to each well. Assay plates were then incubated (humidified, 37° C. with 5% CO2) overnight. After incubation, the media was removed, and wells were washed 3 times with 40 μL of warmed DPBS. […] All compounds were plated in a duplicate 10-point dilution series that consisted of 2-fold dilutions. The plates were incubated (humidified, 37° C. with 5% CO2) with compound for 20 minutes. Afterwards, 20 μL/well of 2 mM 13C6,15N-1-isoleucine was added to each well and plates were incubated again (humidified, 37° C. with 5% CO2) for another 20 minutes. Assay buffer was then removed, and plates were washed. 70 μL/well of stop solution (75% acetonitrile, 25% HPLC grade water, 250 nM 1-leucine-1-13 C (RapidFire standard)) was added to each well. The plates were sealed and then placed in a −20° C. freezer for 20 minutes. The plates were thawed at room temperature for 20 minutes and then centrifuge for 20 minutes at 3000 rpm. Using an ABSciex API4000 mass spectrometer, processed samples were loaded onto the graphitic carbon SPE-column. The time for aspiration, load/wash, elution and re-equilibration time was 600, 1500, 3000 and 500 milliseconds, respectively. Peak areas were calculated using RapidFire Integrator software.

SMILES	IC50
CCC(O)C(=O)N1CCC[C@@H](N(C)C(=O)NCc2cc3cc(Cl)ccc3[nH]2)C1 (stereo partly drawn) [Compound 40, 3-((5-chloro-1H-indol-2-yl)methyl)-1-((3R)-1-(2-hydroxybutanoyl)piperidin-3-yl)-1-methylurea]	5.25 µM
COc1cc2[nH]c(CNC(=O)N(C)[C@@H]3CCCN(C(C)=O)C3)cc2cc1Cl [Compound 153, (R)-1-(1-acetylpiperidin-3-yl)-3-((5-chloro-6-methoxy-1H-indol-2-yl)methyl)-1-methylurea]	0.504 µM
CC(=O)N1CCC[C@@H](N(C)C(=O)NCc2cc3ccccc3[nH]2)C1 [Compound 148, (R)-3-((1H-indol-2-yl)methyl)-1-(1-acetylpiperidin-3-yl)-1-methylurea]	1.08 µM
CCC(NC(C)=O)C(=O)N1CCC[C@@H](N(C)C(=O)NCc2cc3cc(Cl)ccc3[nH]2)C1 (stereo partly drawn) [Compound 104, N-(1-((R)-3-(3-((5-chloro-1H-indol-2-yl)methyl)-1-methylureido)piperidin-1-yl)-1-oxobutan-2-yl)acetamide]	6.78 µM
CCN(C(=O)NCc1cc2cc(F)ccc2[nH]1)[C@@H]1CCCN(C(C)=O)C1 [Compound 166, (R)-1-(1-acetylpiperidin-3-yl)-1-ethyl-3-((5-fluoro-1H-indol-2-yl)methyl)urea]	0.168 µM
Cc1[nH]cnc1C(=O)N1CCC[C@@H](N(C)C(=O)NCc2cc3cc(Cl)ccc3[nH]2)C1 [Compound 58, (R)-3-((5-chloro-1H-indol-2-yl)methyl)-1-methyl-1-(1-(5-methyl-1H-imidazole-4-carbonyl)piperidin-3-yl)urea]	4.05 µM
CN(C(=O)NCc1cc2cc(Cl)ccc2[nH]1)[C@@H]1CCCN(C(=O)c2cccc3c2OCC3)C1 [Compound 100, (R)-3-((5-chloro-1H-indol-2-yl)methyl)-1-(1-(2,3-dihydrobenzofuran-7-carbonyl)piperidin-3-yl)-1-methylurea]	0.38 µM
CC(=O)N1CCC[C@@H](N(C)C(=O)NCc2cc3ccc(F)cc3[nH]2)C1 [Compound 160, (R)-1-(1-acetylpiperidin-3-yl)-3-((6-fluoro-1H-indol-2-yl)methyl)-1-methylurea]	0.708 µM
CN(C(=O)NCc1cc2cc(Cl)ccc2[nH]1)[C@@H]1CCCN(C(=O)CN2CCCC2=O)C1 [Compound 94, (R)-3-((5-chloro-1H-indol-2-yl)methyl)-1-methyl-1-(1-(2-(2-oxopyrrolidin-1-yl)acetyl)piperidin-3-yl)urea]	2.75 µM
COc1ccc2[nH]c(CNC(=O)N(C)[C@@H]3CCCN(C(C)=O)C3)cc2c1 [Compound 224, (R)-1-(1-acetylpiperidin-3-yl)-3-((5-methoxy-1H-indol-2-yl)methyl)-1-methylurea]	1.65 µM
CN(C(=O)NCc1cc2cc(Cl)ccc2[nH]1)[C@@H]1CCCN(C(=O)C2CC(F)(F)C2)C1 [Compound 44, (R)-3-((5-chloro-1H-indol-2-yl)methyl)-1-(1-(3,3-difluorocyclobutane-1-carbonyl)piperidin-3-yl)-1-methylurea]	0.35 µM
CN(C(=O)NCc1cc2cc(Cl)ccc2[nH]1)[C@@H]1CCCN(C(=O)C2CCCO2)C1 (stereo partly drawn) [Compound 61, 3-((5-chloro-1H-indol-2-yl)methyl)-1-methyl-1-((3R)-1-(tetrahydrofuran-2-carbonyl)piperidin-3-yl)urea]	0.542 µM
CN(C(=O)NCc1cc2cc(Cl)ccc2[nH]1)[C@@H]1CCCN(C(=O)CNC(=O)C(F)(F)F)C1 [Compound 56, (R)-N-(2-(3-(3-((5-chloro-1H-indol-2-yl)methyl)-1-methylureido)piperidin-1-yl)-2-oxoethyl)-2,2,2-trifluoroacetamide]	2.46 µM
CN(C(=O)NCc1cc2cc(Cl)ccc2[nH]1)[C@@H]1CCCN(C(=O)C2(C(F)(F)F)CC2)C1 [Compound 57, (R)-3-((5-chloro-1H-indol-2-yl)methyl)-1-methyl-1-(1-(1-(trifluoromethyl)cyclopropane-1-carbonyl)piperidin-3-yl)urea]	8.64 µM
CN(C(=O)NCc1cc2cc(Cl)ccc2[nH]1)[C@@H]1CCCN(C(=O)C(O)CO)C1 (stereo partly drawn) [Compound 110, 3-((5-chloro-1H-indol-2-yl)methyl)-1-((3R)-1-(2,3-dihydroxypropanoyl)piperidin-3-yl)-1-methylurea]	8.56 µM
CC(=O)N1CCC[C@@H](N(C)C(=O)NCc2cc3cc(Cl)cc(C)c3[nH]2)C1 [Compound 227, (R)-1-(1-acetylpiperidin-3-yl)-3-((5-chloro-7-methyl-1H-indol-2-yl)methyl)-1-methylurea]	0.327 µM
CN(C(=O)NCc1cc2cc(Cl)ccc2[nH]1)[C@@H]1CCCN(C(=O)c2cccn3cnnc23)C1 [Compound 74, (R)-1-(1-([1,2,4]triazolo[4,3-a]pyridine-8-carbonyl)piperidin-3-yl)-3-((5-chloro-1H-indol-2-yl)methyl)-1-methylurea]	2.54 µM
CN(C(=O)NCc1cc2cc(Cl)ccc2[nH]1)[C@@H]1CCCN(C(=O)c2cccc(F)c2F)C1 [Compound 42, (R)-3-((5-chloro-1H-indol-2-yl)methyl)-1-(1-(2,3-difluorobenzoyl)piperidin-3-yl)-1-methylurea]	1.24 µM
COc1ccc(CC(=O)N2CCC[C@@H](N(C)C(=O)NCc3cc4cc(Cl)ccc4[nH]3)C2)cc1F [Compound 107, (R)-3-((5-chloro-1H-indol-2-yl)methyl)-1-(1-(2-(3-fluoro-4-methoxyphenyl)acetyl)piperidin-3-yl)-1-methylurea]	1.25 µM
CC(=O)N1CCC[C@@H](N(C)C(=O)NCc2cc3cc(Cl)c(OCc4ccon4)cc3[nH]2)C1 [Compound 138, (R)-1-(1-acetylpiperidin-3-yl)-3-((5-chloro-6-(isoxazol-3-ylmethoxy)-1H-indol-2-yl)methyl)-1-methylurea]	0.643 µM
CC(=O)N1CCC[C@@H](N(C)C(=O)NCc2cc3cc(C)c(Cl)cc3[nH]2)C1 [Compound 157, (R)-1-(1-acetylpiperidin-3-yl)-3-((6-chloro-5-methyl-1H-indol-2-yl)methyl)-1-methylurea]	0.194 µM
CN(C(=O)NCc1cc2cc(Cl)ccc2[nH]1)[C@@H]1CCCN(C(=O)N2CCCC2)C1 [Compound 181, (R)-3-((5-chloro-1H-indol-2-yl)methyl)-1-methyl-1-(1-(pyrrolidine-1-carbonyl)piperidin-3-yl)urea]	0.795 µM
CN(C)C(=O)NCC(=O)N1CCC[C@@H](N(C)C(=O)NCc2cc3cc(Cl)ccc3[nH]2)C1 [Compound 101, (R)-3-((5-chloro-1H-indol-2-yl)methyl)-1-(1-((dimethylcarbamoyl)glycyl)piperidin-3-yl)-1-methylurea]	2.93 µM
Cc1ncc(C(=O)N2CCC[C@@H](N(C)C(=O)NCc3cc4cc(Cl)ccc4[nH]3)C2)o1 [Compound 38, (R)-3-((5-chloro-1H-indol-2-yl)methyl)-1-methyl-1-(1-(2-methyloxazole-5-carbonyl)piperidin-3-yl)urea]	0.428 µM
Cc1cnc(C(=O)N2CCC[C@@H](N(C)C(=O)NCc3cc4cc(Cl)ccc4[nH]3)C2)s1 [Compound 35, (R)-3-((5-chloro-1H-indol-2-yl)methyl)-1-methyl-1-(1-(5-methylthiazole-2-carbonyl)piperidin-3-yl)urea]	0.556 µM
